We go through 20 compounds from patent US8569292B2, “Cyclic inhibitors of 11β-hydroxysteroid dehydrogenase 1” (Vitae Pharmaceuticals, Inc., priority 2008, dated 2013).

The target in assay [1] is T1, 11β-HSD1 (Homo sapiens, UniProt P28845). Nature of the assay: Biological Test Example 4: microsomal 11β-HSD1 in the presence of 50% human plasma. To be noted: for Shift: IC50 in Test Example 4 divided by IC50 in Test Example 1.
Assay [2] addresses T1, 11β-HSD1. Nature of the assay: biochemical. To be noted: for IC50: Biological Test Example 1 IC50 (nM); for pIC50: IC50 Range, Biological Test Example 1; for inhibition at 0.1 µM: read-out: Average % inhibition at 100 nM.

SMILES strings stand for the structures. pIC50: −log10 of the molar value. A value given as a limit tells only on which side of the number the result lay.

T1 sequence (P28845 whole entry): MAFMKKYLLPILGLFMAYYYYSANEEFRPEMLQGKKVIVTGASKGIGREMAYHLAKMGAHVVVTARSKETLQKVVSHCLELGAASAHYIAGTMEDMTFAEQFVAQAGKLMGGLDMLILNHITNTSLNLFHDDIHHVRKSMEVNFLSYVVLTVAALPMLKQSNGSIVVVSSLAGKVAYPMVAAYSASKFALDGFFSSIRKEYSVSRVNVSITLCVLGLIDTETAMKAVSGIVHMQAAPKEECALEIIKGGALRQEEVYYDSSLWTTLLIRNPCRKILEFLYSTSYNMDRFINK

The pIC50 is −log10 of the IC50, conventionally taken in molar units. The term IC50 denotes the concentration at which inhibition is half-maximal. Broadly, the inhibition is the change of the read-out against control, counted positive when it falls. `C[C@@H](c1ccc(-c2ncccc2C#N)cc1)N1CC[C@](CC(C)(C)O)(c2ccccc2)OC1=O` [EXAMPLE 165, 2-(4-((S)-1-((S)-6-(2-hydroxy-2-methylpropyl)-2-oxo-6-phenyl-1,3-oxazinan-3-yl)ethyl)phenyl)nicotinonitrile]: the negative-log IC50 (pIC50) on 11β-HSD1 [1] is 7.37. Also, at 11β-HSD1 [2], the IC50 was 2.4 nM, the pIC50 was more than 7.00 and the inhibition at 0.1 µM worked out at 94.5%.

Consider `Cc1nccc(-c2ccc([C@H](C)N3CC[C@](CC(C)(C)C#N)(c4ccc(F)cc4)OC3=O)cc2)n1` [EXAMPLE 142, 3-((R)-6-(4-fluorophenyl)-3-((S)-1-(4-(2-methylpyrimidin-4-yl)phenyl)ethyl)-2-oxo-1,3-oxazinan-6-yl)-2,2-dimethylpropanenitrile], for which, on 11β-HSD1 [1], the pIC50 was 8.09 and the Shift came out at 3.1. Further, at 11β-HSD1 [2], the concentration for half-maximal inhibition (IC50) was 2.6 nM, the pIC50 was more than 7.00 and the inhibition at 0.1 µM was found to be 96.4%.

As to `C[C@@H](c1ccc(-c2cncc(C(N)=O)n2)cc1)N1CC[C@](CC(C)(C)O)(c2ccc(F)cc2)OC1=O` [EXAMPLE 159, 6-(4-{1-[6-(4-Fluoro-phenyl)-6-(2-hydroxy-2-methyl-propyl)-2-oxo-[1,3]oxazinan-3-yl]-ethyl}-phenyl)-pyrazine-2-carboxylic acid amide], at 11β-HSD1 [1], the pIC50 is 8.14 and the Shift stood at 2.2. Moreover, on 11β-HSD1 [2], half-maximal inhibition (IC50) was put at 3.3 nM, the pIC50 is more than 7.00 and the inhibition at 0.1 µM was 94.6%.

With `COc1ccc(-c2ccc([C@H](C)N3CC[C@](CCO)(c4ccccc4)OC3=O)cc2)cn1` [EXAMPLE 92, (S)-6-(2-hydroxyethyl)-3-((S)-1-(4-(6-methoxypyridin-3-yl)phenyl)ethyl)-6-phenyl-1,3-oxazinan-2-one], on 11β-HSD1 [1], the negative-log IC50 (pIC50) is 7.90 and the Shift stood at 23.7. On 11β-HSD1 [2], the IC50 was determined as 0.5 nM, the negative-log IC50 (pIC50) was more than 7.00 and the inhibition at 0.1 µM amounted to 97.3%.

`C[C@@H](c1ccc(-c2ccc(C(=O)NC3CC3)cn2)cc1)N1CC[C@](CC(C)(C)C#N)(c2ccccc2)OC1=O` [EXAMPLE 2, 6-(4-((S)-1-((R)-6-(2-cyano-2-methylpropyl)-2-oxo-6-phenyl-1,3-oxazinan-3-yl)ethyl)phenyl)-N-cyclopropylnicotinamide]: on 11β-HSD1 [1], the negative-log IC50 (pIC50) was 8.54 and the Shift is 3.8. Further, on 11β-HSD1 [2], the midpoint of inhibition, the IC50, lay at 0.8 nM; the pIC50 is more than 7.00; the inhibition at 0.1 µM came out at 99%.

Consider `Cc1cc(-c2ccc([C@H](C)N3CC[C@](CC(C)(C)O)(c4ccc(F)cc4)OC3=O)cc2)cc[n+]1[O-]` [EXAMPLE 124, 4-(4-((S)-1-((S)-6-(4-fluorophenyl)-6-(2-hydroxy-2-methylpropyl)-2-oxo-1,3-oxazinan-3-yl)ethyl)phenyl)-2-methylpyridine 1-oxide], for which, on 11β-HSD1 [1], the pIC50 is 7.84 and the Shift is listed as 2.6. In addition, at 11β-HSD1 [2], the IC50 came to 5.6 nM, the negative logarithm of the IC50 (pIC50) was more than 7.00 and the inhibition at 0.1 µM stood at 88.1%.

Take `Cc1nc(C)c(-c2ccc([C@H](C)N3CC[C@](CCC(N)=O)(c4ccc(F)cc4)OC3=O)cc2)s1` [EXAMPLE 84, 3-((R)-3-((S)-1-(4-(2,4-dimethylthiazol-5-yl)phenyl)ethyl)-6-(4-fluorophenyl)-2-oxo-1,3-oxazinan-6-yl)propanamide]: on 11β-HSD1 [1], the pIC50 is 7.91 and the Shift worked out at 3.5. On 11β-HSD1 [2], the IC50 is 3.5 nM, the negative-log IC50 (pIC50) was more than 7.00 and the inhibition at 0.1 µM stood at 93.3%.

In the case of `Cc1cccc(-c2ccc([C@H](C)N3CC[C@](CCCO)(c4ccccc4)OC3=O)cc2)n1` [EXAMPLE 90, (R)-6-(3-hydroxypropyl)-3-((S)-1-(4-(6-methylpyridin-2-yl)phenyl)ethyl)-6-phenyl-1,3-oxazinan-2-one], on 11β-HSD1 [1], the negative logarithm of the IC50 (pIC50) was 7.87 and the Shift is given as 25.5. At 11β-HSD1 [2], the IC50 was 0.5 nM, the negative-log IC50 (pIC50) is more than 7.00 and the inhibition at 0.1 µM came out at 96.7%.

`C[C@@H](c1ccc(-c2cccnc2)cc1)N1CC[C@](CCC(N)=O)(c2ccccc2)OC1=O` [EXAMPLE 47, 3-((R)-2-oxo-6-phenyl-3-((S)-1-(4-(pyridin-3-yl)phenyl)ethyl)-1,3-oxazinan-6-yl)propanamide]: the negative logarithm of the IC50 (pIC50) on 11β-HSD1 [1] is 7.67. Further, at 11β-HSD1 [2], the IC50 was 2.6 nM, the pIC50 was more than 7.00 and the inhibition at 0.1 µM was 91%.

As for `Cc1cc(-c2ccc([C@H](C)N3CC[C@](CCCO)(c4ccc(F)cc4)OC3=O)cc2)cc(C)[n+]1[O-]` [EXAMPLE 122, 4-(4-((S)-1-((R)-6-(4-fluorophenyl)-6-(3-hydroxypropyl)-2-oxo-1,3-oxazinan-3-yl)ethyl)phenyl)-2,6-dimethylpyridine 1-oxide], at 11β-HSD1 [1], the negative logarithm of the IC50 (pIC50) is 8.19 and the Shift turned out to be 2.6. At 11β-HSD1 [2], the IC50 worked out at 2.5 nM, the pIC50 is more than 7.00 and the inhibition at 0.1 µM amounted to 94.5%.

Turning to `C[C@@H](c1ccc(-c2ccccn2)cc1)N1CC[C@](CCO)(c2ccc(F)cc2)OC1=O` [EXAMPLE 57, (S)-6-(4-fluorophenyl)-6-(2-hydroxyethyl)-3-((S)-1-(4-(pyridin-2-yl)phenyl)ethyl)-1,3-oxazinan-2-one], on 11β-HSD1 [1], the pIC50 was 7.72 and the Shift stood at 18.8. At 11β-HSD1 [2], the IC50 turned out to be 1 nM, the pIC50 is more than 7.00 and the inhibition at 0.1 µM came to 99.4%.

In the case of `Cc1nccn1-c1ncc(-c2ccc([C@H](C)N3CC[C@](CC(C)(C)O)(c4ccccc4)OC3=O)cc2)cn1` [EXAMPLE 27, (S)-6-(2-hydroxy-2-methylpropyl)-3-((S)-1-(4-(2-(2-methyl-1H-imidazol-1-yl)pyrimidin-5-yl)phenyl)ethyl)-6-phenyl-1,3-oxazinan-2-one], at 11β-HSD1 [1], the pIC50 is 8.33 and the Shift is listed as 3.8. Also, on 11β-HSD1 [2], 1.2 nM corresponded to half-maximal inhibition (IC50), the pIC50 is more than 7.00 and the inhibition at 0.1 µM turned out to be 96.8%.

In the case of `C[C@@H](c1ccc(-c2ccncc2)cc1)N1CC[C@](CCC(N)=O)(c2ccc(F)cc2)OC1=O` [EXAMPLE 74, 3-((R)-6-(4-fluorophenyl)-2-oxo-3-((S)-1-(4-(pyridin-4-yl)phenyl)ethyl)-1,3-oxazinan-6-yl)propanamide], the pIC50 at 11β-HSD1 [1] is 8.33. Besides, on 11β-HSD1 [2], 1.4 nM corresponded to half-maximal inhibition (IC50), the negative logarithm of the IC50 (pIC50) is more than 7.00 and the inhibition at 0.1 µM was 95.7%.

As to `C[C@@H](c1ccc(-c2ccccn2)cc1)N1CC[C@](CCC(N)=O)(c2ccc(F)cc2)OC1=O` [EXAMPLE 60, 3-((R)-6-(4-fluorophenyl)-2-oxo-3-((S)-1-(4-(pyridin-2-yl)phenyl)ethyl)-1,3-oxazinan-6-yl)propanamide], on 11β-HSD1 [1], the negative-log IC50 (pIC50) is 7.68 and the Shift was found to be 13.1. Further, on 11β-HSD1 [2], the concentration for half-maximal inhibition (IC50) is 1.6 nM, the negative-log IC50 (pIC50) was more than 7.00 and the inhibition at 0.1 µM was 91.9%.

For `C[C@@H](c1ccc(-c2ncc(C(=O)NC(C)(C)C)s2)cc1)N1CC[C@](CC(C)(C)O)(c2ccccc2)OC1=O` [EXAMPLE 23, N-tert-butyl-2-(4-((S)-1-((S)-6-(2-hydroxy-2-methylpropyl)-2-oxo-6-phenyl-1,3-oxazinan-3-yl)ethyl)phenyl)thiazole-5-carboxamide], at 11β-HSD1 [1], the negative logarithm of the IC50 (pIC50) was 7.86 and the Shift was found to be 5.1. On 11β-HSD1 [2], 2.7 nM corresponded to half-maximal inhibition (IC50), the pIC50 was more than 7.00 and the inhibition at 0.1 µM is 89.3%.

For the compound `C[C@@H](c1ccc(-c2ccc(OCCF)nc2)cc1)N1CC[C@](CC(C)(C)O)(c2ccccc2)OC1=O` [EXAMPLE 200, (S)-3-((S)-1-(4-(6-(2-fluoroethoxy)pyridin-3-yl)phenyl)ethyl)-6-(2-hydroxy-2-methylpropyl)-6-phenyl-1,3-oxazinan-2-one], at 11β-HSD1 [1], the pIC50 was 7.74 and the Shift is 19.1. Moreover, at 11β-HSD1 [2], the IC50 was 0.96 nM, the negative-log IC50 (pIC50) is more than 7.00 and the inhibition at 0.1 µM was determined as 98.3%.

In the case of `C[C@@H](c1ccc(-c2nccs2)cc1)N1CC[C@](CCCO)(c2ccc(F)cc2)OC1=O` [EXAMPLE 82, (R)-6-(4-fluorophenyl)-6-(3-hydroxypropyl)-3-((S)-1-(4-(thiazol-2-yl)phenyl)ethyl)-1,3-oxazinan-2-one], the pIC50 on 11β-HSD1 [1] is 7.60. Further, at 11β-HSD1 [2], inhibition was half-maximal at 1.8 nM (IC50), the negative logarithm of the IC50 (pIC50) is more than 7.00 and the inhibition at 0.1 µM was 98.1%.

On to `C[C@@H](c1ccc(-c2cncc(C#N)n2)cc1)N1CC[C@](CC(C)(C)O)(c2ccc(F)cc2)OC1=O` [EXAMPLE 157, 6-(4-((S)-1-((S)-6-(4-fluorophenyl)-6-(2-hydroxy-2-methylpropyl)-2-oxo-1,3-oxazinan-3-yl)ethyl)phenyl)pyrazine-2-carbonitrile], for which, on 11β-HSD1 [1], the pIC50 was 7.56 and the Shift is 9.6. At 11β-HSD1 [2], the concentration for half-maximal inhibition (IC50) was found to be 2.9 nM, the negative-log IC50 (pIC50) was more than 7.00 and the inhibition at 0.1 µM is 96.3%.

Turning to `C[C@@H](c1ccc(-c2ccccn2)cc1)N1CC[C@](CCC(N)=O)(c2ccccc2)OC1=O` [EXAMPLE 88, 3-((R)-2-oxo-6-phenyl-3-((S)-1-(4-(pyridin-2-yl)phenyl)ethyl)-1,3-oxazinan-6-yl)propanamide], the negative-log IC50 (pIC50) on 11β-HSD1 [1] was 8.00. Besides, on 11β-HSD1 [2], it took 1.7 nM to reach half-maximal inhibition (IC50), the negative logarithm of the IC50 (pIC50) was more than 7.00 and the inhibition at 0.1 µM stood at 98.3%.

On to `C[C@@H](c1ccc(-c2cccnc2)cc1)N1CC[C@](CCCO)(c2ccc(F)cc2)OC1=O` [EXAMPLE 197, (R)-6-(4-fluorophenyl)-6-(3-hydroxypropyl)-3-((S)-1-(4-(pyridin-3-yl)phenyl)ethyl)-1,3-oxazinan-2-one], for which the negative logarithm of the IC50 (pIC50) on 11β-HSD1 [1] is 8.24. Besides, at 11β-HSD1 [2], inhibition was half-maximal at 1.1 nM (IC50), the pIC50 was more than 7.00 and the inhibition at 0.1 µM was 96.5%.
